Counter-ions that a name gives are not always drawn. Like-named read-outs stand apart in the source and are kept apart here.

The text below walks through data of patent US10010547B2 (CASCADIAN THERAPEUTICS, INC., priority 2014, dated 2018).

One assay addresses Chk-1 kinase (Homo sapiens (Human), UniProt O14757). The assay can be described thus: Chk-1 Kinase Inhibiting Activity (33P-ATP filter assay, CHKtide substrate). Format: biochemical. To be noted: against Chk-1 kinase; read-out: IC50. In outline: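 Full-length N-terminal GST-tagged human Chk-1 from insect cells, 0.5 nM final, with 20 μM peptide substrate and 33P-ATP in HEPES pH 7.5 buffer with 1% DMSO. Reaction ran 120 minutes at room temperature; incorporated radioactivity captured on P81 filters and counted for IC50.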

For another assay, the system named is MIA PaCa-2 cells. The assay can be described thus: Gemcitabine Combination Cell Assay (Cell Titer Glo). Format: cell-based. The note with it: for IC50: Homo sapiens; for 10xLS: approximate concentration of Chk1 inhibitor that results in a 10-fold reduction in the IC50 of gemcitabine alone; for 2xLS: approximate concentration of Chk1 inhibitor that results in a two-fold reduction in the IC50 of gemcitabine alone. In outline: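 MIA PaCa-2 cells were treated 72 h with half-log dilutions of Chk1 inhibitor (top 3000 nM) and gemcitabine (top 100 nM), alone and in full matrix; viability by CellTiter-Glo luminescence. IC50s from four-parameter fit; Chk1 inhibitor concentrations giving two- and ten-fold lowering of gemcitabine IC50 were estimated.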
On the technique in general: In ATP-based viability assays light output follows the ATP content of the culture.

Where [1] appears, read: Chk1 inhibitor alone, MIA PaCa-2 cells, 72 h, read-out: Chk1 IC50.

Chk-1 kinase, sequence (O14757 whole entry): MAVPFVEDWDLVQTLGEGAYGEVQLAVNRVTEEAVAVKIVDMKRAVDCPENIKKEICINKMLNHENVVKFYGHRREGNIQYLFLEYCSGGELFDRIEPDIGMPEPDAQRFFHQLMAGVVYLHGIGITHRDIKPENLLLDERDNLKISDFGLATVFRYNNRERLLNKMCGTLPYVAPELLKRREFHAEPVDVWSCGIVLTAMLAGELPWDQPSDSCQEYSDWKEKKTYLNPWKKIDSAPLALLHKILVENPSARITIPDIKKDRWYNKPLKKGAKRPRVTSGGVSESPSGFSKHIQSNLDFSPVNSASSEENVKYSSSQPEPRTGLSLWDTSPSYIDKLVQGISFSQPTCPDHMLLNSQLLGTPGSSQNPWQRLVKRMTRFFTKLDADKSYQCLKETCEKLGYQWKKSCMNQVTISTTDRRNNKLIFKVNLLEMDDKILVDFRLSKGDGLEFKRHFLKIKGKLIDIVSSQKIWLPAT

`COc1cc([C@@H]2CN(C)CCO2)ccc1-c1cc(Nc2cnc(C#N)cn2)n[nH]1` [Example 117, 5-[[5-[2-Methoxy-4-[(2R)-4-methylmorpholin-2-yl]phenyl]-1H-pyrazol-3-yl]amino]pyrazine-2-carbonitrile hydrochloride]: the IC50 at Chk-1 kinase stood at 0.027 nM; in the assay with MIA PaCa-2 cells (MIA PaCa-2, 72 h, read-out: Chk1 IC50 (nM)), 1890 nM. In addition, the “10xLS” value with MIA PaCa-2 cells (MIA PaCa-2 cells, 72 h) turned out to be 1000 nM. Moreover, the “2xLS” value in the assay with MIA PaCa-2 cells (MIA PaCa-2 cells, 72 h) turned out to be 10 nM.
Regarding `COc1cc(OCC2CCCN2)ccc1-c1cc(Nc2cnc(C#N)cn2)n[nH]1` (stereo not drawn) [Example 34, 5-[[5-[2-methoxy-4-(pyrrolidin-2-ylmethoxy)phenyl]-1H-pyrazol-3-yl]amino]pyrazine-2-carbonitrile], the IC50 on Chk-1 kinase came to 0.14 nM. In the assay with MIA PaCa-2 cells (setting [1]), the concentration for half-maximal inhibition (IC50) is 183 nM. Also, in the assay on MIA PaCa-2 cells (MIA PaCa-2 cells, 72 h), the “10xLS” value is 100 nM and the “2xLS” value is on record as 3 nM.
In the same order, the values of `COc1cc(OCC2CCN(C)CC2)ccc1-c1cc(Nc2cnc(C#N)cn2)n[nH]1` [Example 29, 5-[[5-[2-methoxy-4-[(1-methyl-4-piperidyl)methoxy]phenyl]-1H-pyrazol-3-yl]amino]pyrazine-2-carbonitrile] are 0.068 nM, 176 nM, 100 nM and 3 nM.
The matching figures for `COc1cc(C2CCCN(C)C2)ccc1-c1cc(Nc2cnc(C#N)cn2)n[nH]1` (stereo not drawn) [Example 40, 5-[[5-[2-methoxy-4-(1-methyl-3-piperidyl)phenyl]-1H-pyrazol-3-yl]amino]pyrazine-2-carbonitrile]: 0.14 nM, 188 nM, 30 nM and less than 3 nM.
Take `COc1cc(O[C@@H]2CCN(C)C2)ccc1-c1cc(Nc2cnc(C#N)cn2)n[nH]1` [Example 78, 5-[[5-[2-methoxy-4-[(3R)-1-methylpyrrolidin-3-yl]oxy-phenyl]-1H-pyrazol-3-yl]amino]pyrazine-2-carbonitrile]: the IC50 at Chk-1 kinase was 0.69 nM; in the assay on MIA PaCa-2 cells (setting [1]), 136 nM. The “10xLS” value in the assay on MIA PaCa-2 cells (MIA PaCa-2 cells, 72 h) is listed as 100 nM. In addition, the “2xLS” value in the assay with MIA PaCa-2 cells (MIA PaCa-2 cells, 72 h) came out at 10 nM.
The matching figures for `CCN1CCC(c2ccc(-c3cc(Nc4cnc(C#N)cn4)n[nH]3)c(OC)c2)C(F)(F)C1` (stereo not drawn) [Example 98, 5-[[5-[4-(1-ethyl-3,3-difluoro-4-piperidyl)-2-methoxy-phenyl]-1H-pyrazol-3-yl]amino]pyrazine-2-carbonitrile]: 1.8 nM, 1780 nM, less than 1000 nM and 10 nM.
The matching figures for `COc1cc(OC[C@H]2CCCN2C(C)C)ccc1-c1cc(Nc2cnc(C#N)cn2)n[nH]1` [Example 127, 5-[[5-[4-[[(2R)-1-isopropylpyrrolidin-2-yl]methoxy]-2-methoxy-phenyl]-1H-pyrazol-3-yl]amino]pyrazine-2-carbonitrile]: 0.044 nM, 169 nM, less than 100 nM and less than 3 nM.
In the same order, the values of `COc1cc(N2CCCNCC2)ccc1-c1cc(Nc2cnc(C#N)cn2)n[nH]1` [Example 54, 5-[[5-[4-(1,4-diazepan-1-yl)-2-methoxy-phenyl]-1H-pyrazol-3-yl]amino]pyrazine-2-carbonitrile] are 0.12 nM, 137 nM, 30 nM and less than 3 nM.
For the compound `COc1cc(N2CCN(C)CC2)cc(OC)c1-c1cc(Nc2cnc(C#N)cn2)n[nH]1` [Example 122, 5-[[5-[2,6-dimethoxy-4-(4-methylpiperazin-1-yl)phenyl]-1H-pyrazol-3-yl]amino]pyrazine-2-carbonitrile], the half-inhibitory concentration (IC50) was 0.14 nM on Chk-1 kinase and 136 nM in the assay on MIA PaCa-2 cells (setting [1]). Further, the “10xLS” value in the assay with MIA PaCa-2 cells (MIA PaCa-2 cells, 72 h) was less than 100 nM. The “2xLS” value with MIA PaCa-2 cells (MIA PaCa-2 cells, 72 h) came to 3 nM.

The term IC50 denotes the concentration at which inhibition is half-maximal.
